The target in one experiment is Receptor tyrosine-protein kinase erbB-2 (Homo sapiens, UniProt P04626). Kind of experiment: biochemical. Format: cell-based, Insect cells. The conditions noted are these: insect cells.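 Also: inhibition of HER2 kinase enzyme activity, measured with Poly(Glu:Tyr) as the phosphorylation substrate; in other assays of this panel Not Active means under 50% inhibition at 10 µM.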
Platelet-activating factor receptor, sequence (P25105 whole entry): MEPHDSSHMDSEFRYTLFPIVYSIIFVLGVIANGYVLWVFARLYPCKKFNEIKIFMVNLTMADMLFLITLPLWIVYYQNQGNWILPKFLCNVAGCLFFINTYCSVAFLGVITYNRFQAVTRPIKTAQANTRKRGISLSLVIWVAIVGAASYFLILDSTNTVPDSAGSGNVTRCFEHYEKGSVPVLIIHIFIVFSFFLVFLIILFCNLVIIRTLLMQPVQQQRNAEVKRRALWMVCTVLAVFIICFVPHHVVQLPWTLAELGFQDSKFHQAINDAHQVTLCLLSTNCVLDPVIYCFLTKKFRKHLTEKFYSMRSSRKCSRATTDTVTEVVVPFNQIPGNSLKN
In general, IC50 refers to the concentration that inhibits the measured activity by half. With `CCN(CC)CCNC(=O)c1cc(S(C)(=O)=O)ccc1OC` [TIAPRIDE], the IC50 result is “Not Active”.

Turning to `Clc1ccccc1CN1CCc2sccc2C1` [TICLOPIDINE], the IC50 entry is listed as “Not Active”.

For the compound `NC1CCN(c2nc3c(cc2F)c(=O)c(C(=O)O)cn3-c2ccc(F)cc2F)C1` (centres undefined) [TOSUFLOXACIN], the IC50 entry was “Not Active”.

Consider `CC(c1cc2ccccc2s1)N(O)C(N)=O` (centres undefined) [ZILEUTON], for which the IC50 entry is reported as “Not Active”.

The term Ki denotes the equilibrium dissociation constant of an inhibitor or competing ligand from its target. For MANGANESE CHLORIDE ANHYDROUS, the IC50 entry is “Not Active” and the Ki result is “Not Active”.

For the compound SODIUM ORTHOVANAD, the IC50 entry is given as “Not Active” and the Ki result is reported as “Not Active”.

The same experiment, now with this note: read-out: IC50.
With `O=C(Nc1ccc(Br)cc1)c1cc(Br)cc(Br)c1O` [TRIBROMSALAN], the IC50 was found to be 5.97 µM.

The next experiment has as its target Glycine receptor (Rattus norvegicus, UniProt P22771+P24524+P07727+P20781). Also: in other assays of this panel Not Active means under 50% inhibition at 10 µM.
Assay: not given
Conditions: not given
Format: cell membranes, Wistar, Spinal cord, Membrane.
Regarding `CCN(CC)CCNC(=O)c1cc(S(C)(=O)=O)ccc1OC` [TIAPRIDE], the IC50 result is given as “Not Active”.

`Clc1ccccc1CN1CCc2sccc2C1` [TICLOPIDINE]: the IC50 entry was “Not Active”.

`NC1CCN(c2nc3c(cc2F)c(=O)c(C(=O)O)cn3-c2ccc(F)cc2F)C1` (centres undefined) [TOSUFLOXACIN]: the IC50 entry is recorded as “Not Active”.

Regarding `O=C(Nc1ccc(Br)cc1)c1cc(Br)cc(Br)c1O` [TRIBROMSALAN], the 50% inhibitory concentration (IC50) result was “Not Active”.

In the case of `CC(c1cc2ccccc2s1)N(O)C(N)=O` (centres undefined) [ZILEUTON], the IC50 entry is recorded as “Not Active”.

Turning to MANGANESE CHLORIDE ANHYDROUS, the IC50 result is “Not Active” and the Ki result was “Not Active”.

SODIUM ORTHOVANAD: the IC50 entry was “Not Active” and the Ki result was “Not Active”.

Another experiment has as its target Platelet-activating factor receptor (Homo sapiens, UniProt P25105). Also: in other assays of this panel Not Active means under 50% inhibition at 10 µM.
Assay: not given
It counts as tissue-based.
Conditions: not given
Consider `CCN(CC)CCNC(=O)c1cc(S(C)(=O)=O)ccc1OC` [TIAPRIDE], for which the IC50 result is reported as “Not Active”.

Turning to `Clc1ccccc1CN1CCc2sccc2C1` [TICLOPIDINE], the IC50 entry is on record as “Not Active”.

For `NC1CCN(c2nc3c(cc2F)c(=O)c(C(=O)O)cn3-c2ccc(F)cc2F)C1` (centres undefined) [TOSUFLOXACIN], the IC50 entry is listed as “Not Active”.

As to `O=C(Nc1ccc(Br)cc1)c1cc(Br)cc(Br)c1O` [TRIBROMSALAN], the half-inhibitory concentration (IC50) entry was “Not Active”.

In the case of `CC(c1cc2ccccc2s1)N(O)C(N)=O` (centres undefined) [ZILEUTON], the IC50 result is given as “Not Active”.

Regarding MANGANESE CHLORIDE ANHYDROUS, the concentration for half-maximal inhibition (IC50) result was “Not Active” and the Ki result is on record as “Not Active”.

For SODIUM ORTHOVANAD, the IC50 entry is given as “Not Active” and the Ki entry is listed as “Not Active”.

The next experiment concerns the target T1, 3-hydroxy-3-methylglutaryl-coenzyme A reductase (Homo sapiens, UniProt P04035).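 Also: enzyme inhibition assay of HMG-CoA reductase using radiolabeled [14C]HMG-CoA as substrate; in other assays of this panel Not Active means under 50% inhibition at 10 µM.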
T1 sequence (P04035 whole entry): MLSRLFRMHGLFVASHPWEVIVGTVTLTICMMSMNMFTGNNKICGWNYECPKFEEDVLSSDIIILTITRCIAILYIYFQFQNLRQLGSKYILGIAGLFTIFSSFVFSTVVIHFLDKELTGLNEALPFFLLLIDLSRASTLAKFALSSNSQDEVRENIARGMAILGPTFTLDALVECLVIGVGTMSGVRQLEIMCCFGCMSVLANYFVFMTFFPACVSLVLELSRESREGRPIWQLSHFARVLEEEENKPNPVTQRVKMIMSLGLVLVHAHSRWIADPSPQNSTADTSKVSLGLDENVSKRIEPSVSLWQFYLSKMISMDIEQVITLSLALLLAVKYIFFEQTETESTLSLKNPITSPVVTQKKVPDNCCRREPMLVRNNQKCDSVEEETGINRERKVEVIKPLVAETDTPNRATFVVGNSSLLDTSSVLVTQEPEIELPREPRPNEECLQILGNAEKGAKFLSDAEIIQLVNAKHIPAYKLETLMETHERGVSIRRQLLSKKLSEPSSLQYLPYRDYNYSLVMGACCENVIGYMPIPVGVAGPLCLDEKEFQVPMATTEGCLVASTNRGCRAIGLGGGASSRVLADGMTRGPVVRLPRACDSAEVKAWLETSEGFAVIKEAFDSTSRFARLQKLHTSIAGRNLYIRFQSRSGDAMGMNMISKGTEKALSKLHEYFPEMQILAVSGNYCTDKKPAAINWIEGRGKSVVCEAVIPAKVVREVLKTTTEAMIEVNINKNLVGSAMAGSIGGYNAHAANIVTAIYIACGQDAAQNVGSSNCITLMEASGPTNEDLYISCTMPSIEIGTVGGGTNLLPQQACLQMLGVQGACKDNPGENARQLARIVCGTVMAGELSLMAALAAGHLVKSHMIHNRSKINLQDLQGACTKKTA
Assay: not given
Also noted: species or system Escherichia coli.
Conditions: not given
For the compound `CCN(CC)CCNC(=O)c1cc(S(C)(=O)=O)ccc1OC` [TIAPRIDE], the IC50 entry is “Not Active”.

With `Clc1ccccc1CN1CCc2sccc2C1` [TICLOPIDINE], the IC50 result is recorded as “Not Active”.

Take `NC1CCN(c2nc3c(cc2F)c(=O)c(C(=O)O)cn3-c2ccc(F)cc2F)C1` (centres undefined) [TOSUFLOXACIN]: the half-inhibitory concentration (IC50) entry is “Not Active”.

On to `O=C(Nc1ccc(Br)cc1)c1cc(Br)cc(Br)c1O` [TRIBROMSALAN], for which the IC50 result is “Not Active”.

As for `CC(c1cc2ccccc2s1)N(O)C(N)=O` (centres undefined) [ZILEUTON], the IC50 entry is “Not Active”.

Consider MANGANESE CHLORIDE ANHYDROUS, for which the IC50 result is on record as “Not Active” and the Ki entry is given as “Not Active”.

In the case of SODIUM ORTHOVANAD, the IC50 entry is on record as “Not Active” and the Ki entry is given as “Not Active”.

The target in another experiment is T2, Type-2 angiotensin II receptor (Homo sapiens, UniProt P50052). Also: in other assays of this panel Not Active means under 50% inhibition at 10 µM.
T2 sequence (P50052 whole entry): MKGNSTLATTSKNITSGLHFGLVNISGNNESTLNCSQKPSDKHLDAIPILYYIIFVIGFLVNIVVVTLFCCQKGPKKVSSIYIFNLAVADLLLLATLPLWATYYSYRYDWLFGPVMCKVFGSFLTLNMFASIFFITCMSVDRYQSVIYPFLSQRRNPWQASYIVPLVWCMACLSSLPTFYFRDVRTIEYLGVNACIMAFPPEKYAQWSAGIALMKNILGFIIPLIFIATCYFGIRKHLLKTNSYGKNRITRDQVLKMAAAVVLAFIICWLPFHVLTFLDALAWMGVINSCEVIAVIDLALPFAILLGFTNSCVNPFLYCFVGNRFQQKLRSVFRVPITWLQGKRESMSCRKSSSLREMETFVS
Assay: not given
The conditions noted are these: cho-k1. It counts as cell-based.
Consider `CCN(CC)CCNC(=O)c1cc(S(C)(=O)=O)ccc1OC` [TIAPRIDE], for which the IC50 result was “Not Active”.

As to `Clc1ccccc1CN1CCc2sccc2C1` [TICLOPIDINE], the IC50 result was “Not Active”.

For `NC1CCN(c2nc3c(cc2F)c(=O)c(C(=O)O)cn3-c2ccc(F)cc2F)C1` (centres undefined) [TOSUFLOXACIN], the IC50 entry is on record as “Not Active”.

As for `O=C(Nc1ccc(Br)cc1)c1cc(Br)cc(Br)c1O` [TRIBROMSALAN], the IC50 entry is “Not Active”.

For the compound `CC(c1cc2ccccc2s1)N(O)C(N)=O` (centres undefined) [ZILEUTON], the IC50 result is recorded as “Not Active”.

Regarding MANGANESE CHLORIDE ANHYDROUS, the IC50 entry is reported as “Not Active” and the Ki result is listed as “Not Active”.

On to SODIUM ORTHOVANAD, for which the IC50 entry is on record as “Not Active” and the Ki result was “Not Active”.

For a further experiment, the target named is T3, Alpha-2C adrenergic receptor (Homo sapiens, UniProt P18825).
T3 sequence (P18825 whole entry): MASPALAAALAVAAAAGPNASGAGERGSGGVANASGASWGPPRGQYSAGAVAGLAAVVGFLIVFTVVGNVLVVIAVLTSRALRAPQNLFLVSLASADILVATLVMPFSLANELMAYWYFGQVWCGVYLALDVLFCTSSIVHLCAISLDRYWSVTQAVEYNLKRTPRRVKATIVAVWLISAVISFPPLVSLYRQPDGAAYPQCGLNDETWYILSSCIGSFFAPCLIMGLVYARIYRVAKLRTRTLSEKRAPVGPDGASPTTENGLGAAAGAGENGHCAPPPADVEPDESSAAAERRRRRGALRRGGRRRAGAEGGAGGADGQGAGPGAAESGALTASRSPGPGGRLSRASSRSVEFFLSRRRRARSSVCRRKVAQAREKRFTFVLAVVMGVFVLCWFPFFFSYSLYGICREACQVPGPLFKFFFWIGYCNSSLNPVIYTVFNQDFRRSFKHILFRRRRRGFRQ
Kind of experiment: DRUGMATRIX: Adrenergic Alpha-2C radioligand binding (ligand: [3H] MK-912). As to IC50: call rule not given here. Format: cell membranes, Sf9, Membrane. As to conditions: read-out: IC50.
Take `Clc1ccccc1CN1CCc2sccc2C1` [TICLOPIDINE]: the IC50 was determined as 1.17 µM.

The experiment is the same for the next values; noted with them: read-out: Ki.
With `Clc1ccccc1CN1CCc2sccc2C1` [TICLOPIDINE], the Ki stood at 0.171 µM.

The same experiment, now with this note: sf9.
Consider `CCN(CC)CCNC(=O)c1cc(S(C)(=O)=O)ccc1OC` [TIAPRIDE], for which the IC50 result is reported as “Not Active”.

Regarding `NC1CCN(c2nc3c(cc2F)c(=O)c(C(=O)O)cn3-c2ccc(F)cc2F)C1` (centres undefined) [TOSUFLOXACIN], the IC50 entry is on record as “Not Active”.

`O=C(Nc1ccc(Br)cc1)c1cc(Br)cc(Br)c1O` [TRIBROMSALAN]: the IC50 entry was “Not Active”.

As to `CC(c1cc2ccccc2s1)N(O)C(N)=O` (centres undefined) [ZILEUTON], the IC50 entry was “Not Active”.

With MANGANESE CHLORIDE ANHYDROUS, the IC50 result is reported as “Not Active” and the Ki entry was “Not Active”.

As for SODIUM ORTHOVANAD, the IC50 result is recorded as “Not Active” and the Ki result was “Not Active”.

In another experiment the target is Tyrosine-protein kinase Fyn (Homo sapiens, UniProt P06241). The experiment is described as follows: biochemical. It counts as cell-based, Insect cells. The conditions noted are these: insect cells.
Tyrosine-protein kinase Fyn, sequence (P06241 whole entry): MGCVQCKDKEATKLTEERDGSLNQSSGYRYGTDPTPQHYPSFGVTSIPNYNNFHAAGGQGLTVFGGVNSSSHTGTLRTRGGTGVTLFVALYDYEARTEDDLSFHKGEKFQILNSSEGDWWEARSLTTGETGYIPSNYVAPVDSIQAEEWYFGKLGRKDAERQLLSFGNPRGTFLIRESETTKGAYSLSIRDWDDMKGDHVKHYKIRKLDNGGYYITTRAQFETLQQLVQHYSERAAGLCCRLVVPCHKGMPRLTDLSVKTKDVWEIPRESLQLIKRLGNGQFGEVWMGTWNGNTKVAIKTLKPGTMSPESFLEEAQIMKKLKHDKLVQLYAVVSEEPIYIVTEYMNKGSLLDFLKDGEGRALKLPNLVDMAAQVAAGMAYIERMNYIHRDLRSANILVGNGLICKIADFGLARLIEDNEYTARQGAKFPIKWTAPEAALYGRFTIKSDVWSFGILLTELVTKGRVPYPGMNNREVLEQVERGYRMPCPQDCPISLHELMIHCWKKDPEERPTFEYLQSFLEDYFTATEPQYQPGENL
Turning to `CCN(CC)CCNC(=O)c1cc(S(C)(=O)=O)ccc1OC` [TIAPRIDE], the IC50 entry is recorded as “Not Active”.

For the compound `Clc1ccccc1CN1CCc2sccc2C1` [TICLOPIDINE], the IC50 entry is given as “Not Active”.

As to `NC1CCN(c2nc3c(cc2F)c(=O)c(C(=O)O)cn3-c2ccc(F)cc2F)C1` (centres undefined) [TOSUFLOXACIN], the IC50 result is reported as “Not Active”.

With `O=C(Nc1ccc(Br)cc1)c1cc(Br)cc(Br)c1O` [TRIBROMSALAN], the IC50 entry is “Not Active”.

On to `CC(c1cc2ccccc2s1)N(O)C(N)=O` (centres undefined) [ZILEUTON], for which the IC50 result is recorded as “Not Active”.

MANGANESE CHLORIDE ANHYDROUS: the IC50 entry is recorded as “Not Active” and the Ki result was “Not Active”.

Turning to SODIUM ORTHOVANAD, the IC50 entry is given as “Not Active” and the Ki result is listed as “Not Active”.

These data come from ChEMBL document CHEMBL1909046, “DrugMatrix in vitro pharmacology data”.
